“Also recorded” adds a separate entry of the source.
Legend:
[1] = tested on: smooth muscle proliferative responses; details: doses sufficiently high to prevent platelet adherence and release; Harker et al.; cited from earlier work
[2] = tested on: human venous endothelial cells; experiment: Release of mitogens from endothelial cells stimulated with factor Xa; conditioned media tested for mitogenic activity on 3T3 cells; format: cell-based; details: 1 unit = activity induced by 2 ng/ml PDGF, FXa 1 nM, ATS 5 nM, PDGF 2 ng/ml, 16 h
Experimental: (§1) Confluent primary cultures or subcultures (passages 1 and 2) of human venous endothelial cells (EC) were cultured in serum-free Dulbecco's Minimal Essential Medium (DMEM)+0.1% bovine serum albumin (BSA) in the presence of human or bovine factor Xa(1 nM) (Sigma Chemical Co., St. Louis, Mo.), antistasin (ATS) (0.5-5.0 nM), or both. Control cultures were untreated or received 2 ng/ml platelet-derived growth factor (PDGF) (Sigma Chemical Co., St. Louis, Mo.). After 16 hours incubation at 37° C., the conditioned media (CM) from the test and control cell cultures were collected and tested for mitogenic activity (MIT) using confluent NIH 3T3 cells (CCL 163, American Type Culture Collection, Rockville, Md.).
(§2) Primary cultures of EC derived from umbilical cord veins were prepared and grown according to a protocol provided to by Dr. Gwendolyn Stewart (Temple University Thrombosis Center, Phila., Pa.). After washing the lumen of the vein twice with DMEM, EC were dissociated with a solution containing 0.05% trypsin and 0.1% collagenase. Thirty minutes later, the venous content and the perfused DMEM (35 ml) was collected into a fifty ml centrifuge tube containing 3.5 ml of bovine serum and the mixture spun at 900 rpm for 10 minutes. The supernate was discarded and the cell pellet resuspended in 3.0 ml DMEM containing 20% fetal bovine serum (FBS) (heat inactivated at 56° C. for 30 minutes), 90 μg heparin per ml, 5 μg fibronectin per ml, and 60 μg endothelial growth factor per ml (cDMEM), and seeded into 35 mm tissue culture dishes. After 24 hours of incubation at 37 °C, 5% CO2, the culture was washed 3-4 times with DMEM and incubated 2-4 days until the cells were confluent. The monolayers were washed with phosphate buffered saline (PBS) and cultured in DMEM with 0.1% BSA in the presence and absence of 1 nM factor Xa, 5 nM antistasin, or a mixture of both. As positive and negative controls, separated monolayers were incubated with the medium plus 2 ng/ml PDGF or with the medium alone. After 16 hours of incubation at 37° C., conditioned media (CM) were collected, centrifuged at 4000×g for 10 minutes, and the supernate was collected and stored at 4° C. until use. The mitogenic activity of the CM was tested by measuring the incorporation of [^3 H] thymidine into cultures of Balb 3T3 cells. For this purpose, wells were seeded with 2×10^4 3T3 cells suspended in 1 ml DMEM with 10% FBS. Once confluent (5-7 days of culture), CM were added and cells incubated for 18 hours at 37° C. after which cultures were washed with warm DMEM, tritiated thymidine added (1 μCi/ml) and cells incubated for 4 hours at 37° C. […] The lysate was transferred to vials with scintillation fluid and radioactivity monitored in a beta radiation counter. […]

[3] = tested on: human venous endothelial cells; experiment: Release of mitogens from endothelial cells stimulated with PDGF; conditioned media tested for mitogenic activity on 3T3 cells; format: cell-based; details: PDGF 2 ng/ml, ATS 5 nM, 16 h
Experimental: as §1, with “cells” for “cells (EC)”, “platelet-derived growth” for “human or bovine”, “(PDGF) (2 ng/ml),” for “Xa(1 nM) (Sigma Chemical Co., St. Louis, Mo.),”, “(5.0-10” for “(0.5-5.0”, “PDGF.” for “platelet-derived growth factor (PDGF) (Sigma Chemical Co., St. Louis, Mo.).”, “C.,” for “C., the”
as §2, with “2 ng/ml PDGF,” for “1 nM factor Xa,”, “alone.” for “alone. After 16 hours of incubation at 37° C., conditioned media (CM) were collected, centrifuged at 4000×g for 10 minutes, and the supernate was collected and stored at 4° C. until use. The mitogenic activity of the CM was tested by measuring the incorporation of [^3 H] thymidine into cultures of Balb 3T3 cells. For this purpose, wells were seeded with 2×10^4 3T3 cells suspended in 1 ml DMEM with 10% FBS. Once confluent (5-7 days of culture), CM were added and cells incubated for 18 hours at 37° C. after which cultures were washed with warm DMEM, tritiated thymidine added (1 μCi/ml) and cells incubated for 4 hours at 37° C.”

Factor VIIa = target: T1, Factor VIIa (Homo sapiens, UniProt P08709); details: Waxman et al.; cited from earlier work
T1 sequence (P08709 213-466 limits assumed): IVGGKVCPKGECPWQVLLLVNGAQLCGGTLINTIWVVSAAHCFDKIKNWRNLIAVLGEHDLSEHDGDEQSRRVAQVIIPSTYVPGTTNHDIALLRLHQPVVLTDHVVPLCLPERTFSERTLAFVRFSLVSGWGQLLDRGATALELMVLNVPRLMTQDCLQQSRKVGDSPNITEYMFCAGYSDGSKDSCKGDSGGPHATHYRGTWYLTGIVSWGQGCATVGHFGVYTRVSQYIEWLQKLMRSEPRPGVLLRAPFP
T1 sequence (P08709 61-212 partner limits assumed): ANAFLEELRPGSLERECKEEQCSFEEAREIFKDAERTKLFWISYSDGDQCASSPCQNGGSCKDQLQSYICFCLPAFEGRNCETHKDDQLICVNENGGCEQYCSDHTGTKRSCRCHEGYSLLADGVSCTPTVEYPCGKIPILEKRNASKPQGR

smooth muscle cells [4] = experiment: Effect of antistasin and tick anticoagulant peptide on factor Xa induced mitogenesis of smooth muscle cells; format: cell-based, rat; details: FIG. 2
Experimental: Primary smooth muscle cell cultures were prepared from the thoracic and abdominal aorta of 2-3 month old Wistar rats essentially using the procedure of Reilly, C. F. (1990) J. Cell Physiol. 142,342 (1990). After removing as much fat and adherent adventitia as possible with scissors and forceps, the tissue was finely minced, enzymatically dissociated with successive 37° C. incubations in HBSS containing collagenase (Sigma, 0.5 mg/ml for 15 min.), then elastase (Sigma, 0.125 mg/ml for 30 min.) and again collagenase (60 min.). […] Cells were grown in Dulbecco's Minimal Essential Medium (DMEM) containing 10% fetal bovine serum (FBS) with antibiotics. […] Using a monoclonal antibody to alpha actin (Sigma Chemical Company, St. Louis, Mo.), about 60-80% (preparation dependent) of these confluent cells stained positive for this smooth muscle cell marker. After 10 days in culture, the cells were dissociated with trypsinethylene diamine tetraacetate (EDTA), split 1:10 and subcultured in the above medium. At confluence the cells were transferred to DMEM containing 0.1 % FBS for a 24 hour period before using them for assay. […]
(§3) The prepared rat smooth muscle cells were seeded in Falcon 24 multiwell plates (10^5 cells/well) and cultured at 37° C., in a 5% CO2 atmosphere in 1 ml DMEM containing 10% FBS. […] The cells were washed twice with cold phosphate buffered saline (PBS), treated twice with 5% trichloroacetic acid (TCA) for 5 min., dissolved with 0.25N NaOH (0.4 ml) incubated at 37° C. for 60 min., mixed with 5 ml Ecolume (ICN Biomedicals, Costa Mesa, Calif.), and their radioactivity determined in a scintillation counter. […] Smooth muscle cell mitogenic activity produced by exogenous agents is expressed as % relative mitogenic activity which is defined as: [formula] […]
The effects of antistasin and tick anticoagulant peptide on factor Xa induced mitogenesis of smooth muscle cells were tested using the method shown in Example 4. […] At the end of the 24 hour incubation, ^3 H-thymidine incorporation into DNA was monitored and smooth muscle cell mitogenic activity was assessed as described in Example 4.

chymotrypsin = chymotrypsin (Bos taurus, UniProt P00766); details: Waxman et al.; cited from earlier work
trypsin = target: T2, trypsin (Bos taurus, UniProt P00760); details: Waxman et al.; cited from earlier work
T2 construct: gene PRSS1
T2 sequence (P00760 24-246): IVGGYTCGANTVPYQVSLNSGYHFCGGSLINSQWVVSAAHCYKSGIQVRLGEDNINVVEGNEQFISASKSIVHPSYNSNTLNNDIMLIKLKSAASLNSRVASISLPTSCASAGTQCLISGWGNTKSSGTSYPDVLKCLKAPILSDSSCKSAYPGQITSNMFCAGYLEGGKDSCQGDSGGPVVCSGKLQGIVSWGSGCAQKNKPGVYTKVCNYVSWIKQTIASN

kallikrein = details: Waxman et al.; cited from earlier work
thrombin = thrombin (Homo sapiens, UniProt P00734); details: Waxman et al.; cited from earlier work
[5] = target: blood coagulation factor Xa (Homo sapiens, UniProt P00742); details: Waxman et al.; cited from earlier work
smooth muscle cells [6] = experiment: Effect of factor Xa inhibitors on human protein S and bovine factor X induced smooth muscle cell mitogenesis; format: cell-based, rat; details: FIG. 3
Experimental: Primary smooth muscle cell cultures were prepared from the thoracic and abdominal aorta of 2-3 month old Wistar rats essentially using the procedure of Reilly, C. F. (1990) J. Cell Physiol. 142,342 (1990). After removing as much fat and adherent adventitia as possible with scissors and forceps, the tissue was finely minced, enzymatically dissociated with successive 37° C. incubations in HBSS containing collagenase (Sigma, 0.5 mg/ml for 15 min.), then elastase (Sigma, 0.125 mg/ml for 30 min.) and again collagenase (60 min.). […] Cells were grown in Dulbecco's Minimal Essential Medium (DMEM) containing 10% fetal bovine serum (FBS) with antibiotics. […]
as §3

Sequence of blood coagulation factor Xa (P00742 235-488 limits assumed): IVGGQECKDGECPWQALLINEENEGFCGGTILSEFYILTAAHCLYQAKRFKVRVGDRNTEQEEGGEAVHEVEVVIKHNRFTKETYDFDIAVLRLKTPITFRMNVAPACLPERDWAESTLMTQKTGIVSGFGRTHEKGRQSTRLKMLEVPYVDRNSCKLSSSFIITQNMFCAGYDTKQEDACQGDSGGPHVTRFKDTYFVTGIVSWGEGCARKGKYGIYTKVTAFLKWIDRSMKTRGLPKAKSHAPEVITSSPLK
Sequence of blood coagulation factor Xa (P00742 41-179 partner limits assumed): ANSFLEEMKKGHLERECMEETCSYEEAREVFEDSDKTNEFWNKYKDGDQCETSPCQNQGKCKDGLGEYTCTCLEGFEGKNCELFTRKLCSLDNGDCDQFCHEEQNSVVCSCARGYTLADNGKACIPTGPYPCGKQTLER

Compound: OCCN(CCO)c1nc(N2CCCCC2)c2nc(N(CCO)CCO)nc(N3CCCCC3)c2n1 [dipyridamole]
- Smooth muscle proliferative responses [1]: prevented

Compound: PDGF [reference compound]
- Mitogenic units of EC conditioned media ([2]; EXP 1): 1.00 mitogenic units
- Mitogenic units of EC conditioned media ([2]; EXP 2): 1.00 mitogenic units
- Mitogenic units of EC conditioned media ([2]; EXP 3): 1.00 mitogenic units
- Mitogenic units of EC conditioned media ([2]; EXP 4): 1.00 mitogenic units
- Mitogenic units of EC conditioned media ([3]; EXP 1): 1.00 mitogenic units
- Mitogenic units of EC conditioned media ([3]; EXP 2): 1.00 mitogenic units
- Mitogenic units of EC conditioned media ([3]; EXP 3): 1.00 mitogenic units

Compound: tick anticoagulant peptide (YNRLCIKPRDWIDECDSNEGGERAYFRNGKGGCDSFWICPEDHTGADYYSSYRDCFNACI; UniProt P17726 1-60, looked up) [TAP, 60-amino acid peptide isolated from extracts of the soft tick Ornithodoros moubata]
- Effect on Factor VIIa (Factor VIIa): no effect
- Relative mitogenic activity above control (smooth muscle cells [4]; 10 nM fXa and 3-25 nM TAP): about 25%
- Relative mitogenic activity above control (smooth muscle cells [4]; 10 nM fXa and 50-62 nM TAP): about 9%
- Relative mitogenic activity above control (smooth muscle cells [4]; 10 nM fXa with 100-250 nM TAP): near zero
- Effect on chymotrypsin (chymotrypsin): no effect
- Effect on trypsin (trypsin): no effect
- Effect on kallikrein (kallikrein): no effect
- Effect on thrombin (thrombin): no effect
- Inhibition of blood factor Xa [5]: highly specific inhibitor; also recorded: potent inhibitor
- Inhibition of relative mitogenic activity of bovine factor X (smooth muscle cells [6]; 10 nM bovine factor X with 100 nM TAP): not significantly inhibited
- Inhibition of relative mitogenic activity of protein S (smooth muscle cells [6]; protein S with 250 nM TAP): abolished
